From US6124328A, “Methods and compositions for stimulating neurite growth” (Vertex Pharmaceuticals Incorporated, priority 1997, dated 2000)

Target: FKBP12 (Homo sapiens, UniProt P62942)
Test: FKBP12 Binding Assay: inhibition of FKBP rotomase activity (cis-N-succinyl-Ala-Ala-Pro-Phe-p-nitroanilide / chymotrypsin), apparent Ki
Format: biochemical
Details: Table 1a, formula Ia, compound 0.1 nM-10 μM
Source text: Preferably, the assay measures inhibition of FKBP12 rotomase activity. Such an assay has also been described by M. W. Harding et al., supra and by J. J. Siekierka et al., supra. In this assay the isomerization of an artificial substrate--N-succinyl-Ala-Ala-Pro-Phe-p-nitroanilide--is followed spectrophotometrically. The assay includes the cis form of the substrate, FKBP12, the inhibitor and chymotrypsin. Chymotrypsin is able to cleave p-nitroanilide from the trans form of the substrate, but not the cis form. Release of p-nitroanilide is measured.
In this assay various quantities of FKBP12 binding compound (0.1 nM-10 μM) were added to cis-N-succinyl-Ala-Ala-Pro-Phe-p-nitroanilide in the presence of FKBP12 and chymotrypsin. FKBP12 converts the cis form of the substrate to the trans form. This allows chymotrypsin to cleave p-nitroanilide from the substrate. Release of p-nitroanilide was measured spectrophotometrically.

FKBP12, sequence (P62942 whole entry): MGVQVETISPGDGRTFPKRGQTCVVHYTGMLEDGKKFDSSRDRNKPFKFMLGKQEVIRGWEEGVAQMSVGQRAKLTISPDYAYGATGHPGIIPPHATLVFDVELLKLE

| Ki [µM] | Compound |
| --- | --- |
| 26 | O=C(Cc1ccccc1[N+](=O)[O-])C(=O)N1CCCC[C@H]1C(=O)OCc1ccccc1 [Ia B=Benzyl, D=2-Nitrobenzyl, n=2] |

Same assay, conditions: Table 1c, formula Ic, compound 0.1 nM-10 μM

| Ki [µM] | Compound |
| --- | --- |
| > 1200 | CCOC(=O)CN(Cc1ccccc1)C(=O)C(=O)OC |

Same assay, conditions: Table 2, formula II', compound 0.1 nM-10 μM

| Ki [µM] | Compound |
| --- | --- |
| 0.0035 | COc1ccc(CCC(CCCc2ccccc2)OC(=O)[C@@H]2CCCCN2C(=O)C(=O)c2cc(OC)c(OC)c(OC)c2)cc1 (some centres unmarked) [compound 13] |
| 0.005 | COc1cc(C(=O)C(=O)N2CCCC[C@H]2C(=O)OC(CCCc2ccccc2)CCCc2ccc(C(=O)N(C)C)cc2)cc(OC)c1OC (some centres unmarked) [compound 43] |
| 0.007 | COc1cc(C(=O)C(=O)N2CCCC[C@H]2C(=O)OC(CCCc2ccccc2)CCCc2ccc[n+]([O-])c2)cc(OC)c1OC (some centres unmarked) [compound 22] |
| 0.009 | COc1cc(C(=O)C(=O)N2CCCC[C@H]2C(=O)OC(CCCc2ccccc2)c2cccc(C(=O)c3cccnc3)c2)cc(OC)c1OC (some centres unmarked) [compound 92] |
| 75 | COc1cc(C(=O)C(=O)N2CCC[C@H]2C(=O)OC(COCc2ccccc2)COCc2ccccc2)cc(OC)c1OC [compound 107] |
| > 5 | COc1ccc(C(=O)C(=O)N2CCCC[C@H]2C(=O)OC(CCCc2ccccc2)c2ccc(C(=O)c3ccncc3)cc2)cc1OCc1ccccc1 (some centres unmarked) [compound 100] |
| 0.025 | COc1ccc(C(=O)C(=O)N2CCCC[C@H]2C(=O)OC(CCCc2ccccc2)c2cccc(C(=O)c3ccncc3)c2)cc1OCc1ccccc1 (some centres unmarked) [compound 96] |
| 24 | COc1ccc(C(=O)C(=O)N2CCCC[C@H]2C(=O)OC(CCCc2ccccc2)c2ccccc2)cc1OCc1ccccc1 (some centres unmarked) [compound 103] |
| 0.017 | C=CCOc1cc(C(=O)C(=O)N2CCCC[C@H]2C(=O)OC(CCCc2ccccc2)c2cccc(C(=O)c3ccncc3)c2)ccc1OC (some centres unmarked) [compound 97] |
| 3.4 | COc1cc(C(=O)C(=O)N2CCCC[C@H]2C(=O)OC(C)c2cc(OCc3ccccc3)cc(OCc3ccccc3)c2)cc(OC)c1OC (some centres unmarked) [compound 49] |
| 0.15 | C=CCOc1ccccc1C(CCCc1ccccc1)OC(=O)[C@@H]1CCCCN1C(=O)C(=O)c1cc(OC)c(OC)c(OC)c1 (some centres unmarked) [compound 34] |
| 0.0014 | COc1cc(C(=O)C(=O)N2CCCC[C@H]2C(=O)OC(CCCc2ccccc2)c2cccc(OCc3ccncc3)c2)cc(OC)c1OC (some centres unmarked) [compound 64] |
| 0.005 | COc1cc(C(=O)C(=O)N2CCCC[C@H]2C(=O)OC(CCCc2ccccc2)CCCn2cnc3ccccc32)cc(OC)c1OC (some centres unmarked) [compound 15] |
| 0.34 | CC(C)(C)C(=O)C(=O)N1CCC[C@H]1C(=O)OC(CCCc1ccccc1)CCCc1cccnc1 (some centres unmarked) [compound 105] |
| 1.7 | COc1cc(C(=O)C(=O)N2CCCC[C@H]2C(=O)OC(CCCc2ccccc2)c2ccccc2)cc(OC)c1OCc1ccccc1 (some centres unmarked) [compound 104] |
| 4 | COc1cc(C(=O)C(=O)N2CCCC[C@H]2C(=O)OC(c2ccccc2)c2cccc(Oc3ccccc3)c2)cc(OC)c1OC (some centres unmarked) [compound 5] |
| 0.024 | COc1cc(C(=O)C(=O)N2CCCC[C@H]2C(=O)OC(CCCc2ccccc2)c2cccc(C(=O)c3cccnc3)c2)cc(OC)c1OC (some centres unmarked) [compound 91] |
| 15 | COc1cc(C(=O)C(=O)N2CCCC[C@H]2C(=O)OC(CCCc2ccccc2)c2ccc(C(=O)c3ccncc3)cc2)cc(OC)c1OCc1ccccc1 (some centres unmarked) [compound 99] |
| 0.02 | COc1cc(C(=O)C(=O)N2CCCC[C@H]2C(=O)OC(CCCc2ccccc2)CCC(C)c2ccccc2)cc(OC)c1OC (some centres unmarked) [compound 32] |

The remaining lines, values behind:

| Compound | Ki [µM] |
| --- | --- |
| COc1cc(C(=O)C(=O)N2CCCC[C@H]2C(=O)OC(C)c2cc(OCc3ccccc3)c(OCc3ccccc3)c(OCc3ccccc3)c2)cc(OC)c1OC (some centres unmarked) [compound 90] | 2.6 |
| COc1cc(C(=O)C(=O)N2CCCC[C@H]2C(=O)OC(C)c2cc(OCc3ccsc3)c(OCc3ccsc3)c(OCc3ccsc3)c2)cc(OC)c1OC (some centres unmarked) [compound 82] | > 5 |
| CCC(OC(=O)[C@@H]1CCCCN1C(=O)C(=O)c1cc(OC)c(OC)c(OC)c1)c1cc(OCc2ccncc2)c(OCc2ccncc2)c(OCc2ccncc2)c1 (some centres unmarked) [compound 74] | 0.018 |
| COc1cc(C(=O)C(=O)N2CCCC[C@H]2C(=O)OC(CCCc2cccnc2)CCCc2cccnc2)cc(OC)c1OC [compound 106] | 0.0037 |
| COc1cc(C(=O)C(=O)N2CCCC[C@H]2C(=O)OC(CCCc2ccccc2)CCCc2ccc(C(=O)N3CCN(C)CC3)cc2)cc(OC)c1OC (some centres unmarked) [compound 57] | 0.0056 |
| COc1cc(C(=O)C(=O)N2CCC[C@H]2C(=O)OC(C)c2cc(OCc3ccncc3)c(OCc3ccncc3)c(OCc3ccncc3)c2)cc(OC)c1OC (some centres unmarked) [compound 86] | 0.28 |
| COc1cc(C(=O)C(=O)N2CCCC[C@H]2C(=O)OC(C)c2ccc(OCc3ccncc3)c(OCc3ccncc3)c2)cc(OC)c1OC (some centres unmarked) [compound 66] | 0.035 |
| COc1cc(C(=O)C(=O)N2CCC[C@H]2C(=O)OC(CCCc2cccnc2)CCCc2cccnc2)cc(OC)c1OC [compound 108] | 0.089 |
| COc1cc(C(=O)C(=O)N2CCCC[C@H]2C(=O)OC(CCCc2ccccc2)CCCc2ccc(C(=O)NCc3ccccc3)cc2)cc(OC)c1OC (some centres unmarked) [compound 54] | 0.0016 |
| COc1cc(C(=O)C(=O)N2CCCC[C@H]2C(=O)OC(c2cc(OCc3ccncc3)c(OCc3ccncc3)c(OCc3ccncc3)c2)C(C)C)cc(OC)c1OC (some centres unmarked) [compound 116] | 0.013 |
| COc1ccc(C(=O)C(=O)N2CCCC[C@H]2C(=O)OC(CCCc2ccccc2)c2cccc(C(=O)c3ccncc3)c2)cc1C/C=C/c1ccccc1 (some centres unmarked) [compound 98] | 0.38 |
| COc1cc(C(=O)C(=O)N2CCCC[C@H]2C(=O)OC(C)c2cc(OCc3ccncc3)c(OCc3ccncc3)c(OCc3ccncc3)c2)cc(OC)c1OC (some centres unmarked) [compound 69] | 0.036 |
| COc1cc(C(=O)C(=O)N2CCCC[C@H]2C(=O)OC(CCCc2ccccc2)c2ccc(OCc3ccncc3)c(OCc3ccncc3)c2)cc(OC)c1OC (some centres unmarked) [compound 65] | 0.0041 |
| COc1cc(C(=O)C(=O)N2CCCC[C@H]2C(=O)OC(CCCc2ccccc2)CCCc2cccc(C(=O)N3CCOCC3)c2)cc(OC)c1OC (some centres unmarked) [compound 52] | 0.0015 |
| COc1cc(C(=O)C(=O)N2CCCC[C@H]2C(=O)OC(CCCc2ccccc2)c2ccc(OCc3ccncc3)c(C(=O)N3CCOCC3)c2)cc(OC)c1OC (some centres unmarked) [compound 68] | 0.002 |
| C=CCC(OC(=O)[C@@H]1CCCCN1C(=O)C(=O)c1cc(OC)c(OC)c(OC)c1)c1ccc(OCc2ccncc2)c(OCc2ccncc2)c1 (some centres unmarked) [compound 62] | 0.062 |
| C=CCOCC#CC(CCCc1ccccc1)OC(=O)[C@@H]1CCCCN1C(=O)C(=O)c1cc(OC)c(OC)c(OC)c1 (some centres unmarked) [compound 46] | 0.005 |
| COc1cc(C(=O)C(=O)N2CCCC[C@H]2C(=O)OC(C)c2cc(OCc3ccncc3)c(C)c(OCc3ccncc3)c2)cc(OC)c1OC (some centres unmarked) [compound 73] | 0.036 |

| Compound | Ki [µM] |
| --- | --- |
| C=CCOC/C=C/C(CCCc1ccccc1)OC(=O)[C@@H]1CCCCN1C(=O)C(=O)c1cc(OC)c(OC)c(OC)c1 (some centres unmarked) [compound 51] | 0.0028 |
| C=CC(OC(=O)[C@@H]1CCCCN1C(=O)C(=O)c1cc(OC)c(OC)c(OC)c1)c1cc(OCc2ccncc2)c(OCc2ccncc2)c(OCc2ccncc2)c1 (some centres unmarked) [compound 78] | 0.073 |
| COc1cc(C(=O)C(=O)N2CCCC[C@H]2C(=O)OC(CCCc2ccccc2)c2cc(OCc3ccncc3)c(OCc3ccncc3)c(OCc3ccncc3)c2)cc(OC)c1OC (some centres unmarked) [compound 70] | 0.005 |
| C=CCOc1c(OC)cc(C(=O)C(=O)N2CCCC[C@H]2C(=O)OC(CCCc2ccccc2)c2cccc(C(=O)c3ccncc3)c2)cc1OC (some centres unmarked) [compound 95] | 0.0036 |
| COc1cc(C(=O)C(=O)N2CCCC[C@H]2C(=O)OC(CCCc2ccccc2)CCCn2cnc3cncnc32)cc(OC)c1OC (some centres unmarked) [compound 25] | 0.0022 |
| CCCC(OC(=O)[C@@H]1CCCCN1C(=O)C(=O)c1cc(OC)c(OC)c(OC)c1)c1cc(OCc2ccncc2)c(OCc2ccncc2)c(OCc2ccncc2)c1 (some centres unmarked) [compound 81] | 0.005 |
| COc1cc(C(=O)C(=O)N2CCCC[C@H]2C(=O)OC(CCCc2cccnc2)c2cccnc2)cc(OC)c1OC (some centres unmarked) [compound 61] | 0.01 |
| COc1cc(C(=O)C(=O)N2CCCC[C@H]2C(=O)OC(CCCc2ccccc2)CCCc2ccc(C(=O)Nc3ccccn3)cc2)cc(OC)c1OC (some centres unmarked) [compound 60] | 0.002 |
| COc1cc(C(=O)C(=O)N2CCCC[C@H]2C(=O)OC(C)c2ccc(OCc3ccncc3)c(OCc3ccncc3)c2OC(C)C)cc(OC)c1OC (some centres unmarked) [compound 85] | 0.0035 |
| C=CCOCCC(CCCc1ccccc1)OC(=O)[C@@H]1CCCCN1C(=O)C(=O)c1cc(OC)c(OC)c(OC)c1 (some centres unmarked) [compound 50] | 0.011 |
| COc1cc(C(=O)C(=O)N2CCCC[C@H]2C(=O)OC(CCCc2ccccc2)CCCc2ccc(C(=O)N3CCSCC3)cc2)cc(OC)c1OC (some centres unmarked) [compound 55] | 0.0024 |
| COc1cc(C(=O)C(=O)N2CCCC[C@H]2C(=O)OC(CCCc2ccccc2)CCCc2cccc(C(=O)NCc3ccccc3)c2)cc(OC)c1OC (some centres unmarked) [compound 59] | 0.04 |
| CCC(OC(=O)[C@@H]1CCCCN1C(=O)C(=O)c1cc(OC)c(OC)c(OC)c1)c1cc(OCc2ccncc2)c(OCc2ccncc2)c(OCc2ccncc2)c1 (some centres unmarked) [compound 75] | 0.012 |
| COc1cc(C(=O)C(=O)N2CCCC[C@H]2C(=O)OC(CCCc2ccccc2)c2cccc(C(=O)N3CCOCC3)c2)cc(OC)c1OC (some centres unmarked) [compound 56] | 0.0061 |
| COc1cc(C(=O)C(=O)N2CCCC[C@H]2C(=O)OC(CCCc2ccccc2)CCCc2ccc(C(=O)N3CCOCC3)cc2)cc(OC)c1OC (some centres unmarked) [compound 44] | 0.006 |
| COc1cc(C(=O)C(=O)N2CCCC[C@H]2C(=O)OC(C)c2cc(OCc3ccncc3)cc(OCc3ccncc3)c2)cc(OC)c1OC (some centres unmarked) [compound 71] | 0.014 |
| COc1cc(C(=O)C(=O)N2CCCC[C@H]2C(=O)OC(CCCc2ccccc2)CCCc2ccc(C(=O)N3CCCCC3)cc2)cc(OC)c1OC (some centres unmarked) [compound 47] | 0.007 |
